Earlier results on three compounds are cited in US20140004186A1, “COMPOSITIONS COMPRISING A FATTY ACID OIL MIXTURE COMPRISING EPA AND DHA IN FREE ACID FORM, A SURFACTANT, AND A STATIN” (Pronova Biopharma Norge AS, priority 2010, published 2014).

The conditions of data set [1]: Table 7, other surfactants.

Take `CC(O)CO.CCCCCCCCCCCCCCCCCC(=O)O` [Propylene glycol monostearate]: the “HBL Value” in data set [1] is given as 3.4.

As for `CC[C@H](C)C(=O)O[C@H]1C[C@H](O)C=C2C=C[C@H](C)[C@H](CC[C@@H](O)C[C@@H](O)CC(=O)O)[C@H]21` [pravastatin], the oral bioavailability is reported as 18%. `CC(C)c1nc(N(C)S(C)(=O)=O)nc(-c2ccc(F)cc2)c1/C=C/[C@@H](O)C[C@@H](O)CC(=O)O` [rosuvastatin]: the oral bioavailability was 20%.
